Key:
[1] = test system: human breast cancer cells (MCF-7); assay: MTT cytotoxicity assay, MCF-7; format: cell-based; conditions: MCF-7 cells; for IC50: Homo sapiens, MCF7, MTT, 48 h
Method: (§1) One of the key issues to consider a probe suitable for living cells use is its cellular toxicity. In this context, the cytotoxicity of the five synthesised macrocyclic compounds is assessed by a 3-(4,5-dimethylthiazol-2-yl)-2,5-diphenyltetrazolium bromide (MTT) assay. The cytotoxicity of the starting material 1,10-phenanthroline-2,9-dicarbaldehyde is measured by MTT assay for comparison. In this quantitative colorimetric assay, the amount of MTT reduced by cells to its formazan derivative is quantified spectroscopically at 570 nm and is considered equivalent to the number of viable cells. The cytotoxicity of the referred compounds is evaluated using human breast cancer cells (MCF-7), non-cancerous human dermal fibroblasts (NHDF) and human adult dermal skin fibroblasts (designated P14) obtained from the breast biopsy specimen of a person diagnosed with breast cancer. All cells have been exposed to the six different compounds in five concentrations ranging from 10 nM to 100 µM during a period of exposition of 48 h.
(§2) Cell viability was studied quantifying the extent of the reduction of 3-(4,5-dimethylthiazol-2-yl)-2,5-diphenyltetrazolium bromide (MTT) according to a previously described procedure. Briefly, cells were seeded in 48-well plates (0.5×10^4 cells/well) in the culture medium containing FBS and after 48 h they were treated with five concentrations (10 nM and 100 nM, 1 µM, 10 µM and 100 µM) of the different compounds for 48 h, with untreated cells serving as control. At the end of incubation the media in wells were removed and replaced with fresh media and MTT solution and incubated at 37°C for 4 h. Thereafter, media-containing MTT were removed and formazan crystals were dissolved and absorbance was recorded in Biorad 550 microplate reader at 570 nm. The extent of cell death was expressed as the percentage of cell viability in comparison with control cells.
(§3) All experiments were performed in triplicate. The IC50 values were calculated from the obtained dose-response curve by sigmoid fitting. Graphical results of citotoxicity were expressed as the average values ± SEM (standard error of mean). Comparison among multiple groups was analyzed by using a one-way ANOVA followed by Dunnet's post hoc tests to determine significant differences among the means. Difference between groups was considered statistically significant at P<0.05.

[2] = test system: non-cancerous human dermal fibroblasts (NHDF); assay: MTT cytotoxicity assay, NHDF; format: cell-based; conditions: NHDF cells, 48 h
Method: as §1, with “All cells have been exposed to the six different compounds in five concentrations ranging from 10 nM to 100 µM during a period of exposition of 48 h.” left out
Cell viability was studied quantifying the extent of the reduction of 3-(4,5-dimethylthiazol-2-yl)-2,5-diphenyltetrazolium bromide (MTT) according to a previously described procedure. […] Thereafter, media-containing MTT were removed and formazan crystals were dissolved and absorbance was recorded in Biorad 550 microplate reader at 570 nm. The extent of cell death was expressed as the percentage of cell viability in comparison with control cells. […]

[3] = test system: MCF-7, NHDF and P14 cells; assay: Fluorescence and confocal microscopy: uptake and sub-cellular localization; format: cell-based, human; conditions: 10 nM and 100 µM over 48 h
Method: The timescale of trafficking of these compounds and their sub-cellular localization have been subsequently examined in MCF-7, NHDF and P14 cells using fluorescence microscopy. The cells are mounting on 0.1 mm thick glass cover slips by withdrawal of the respectively growth medium.
The incubation times to test the ability compounds to penetrate into cells varied from 5 min to 48 h, and concentrations onto the cells were 10 nM and 100 µM by dissolving in appropriate medium. […] By analyzing each image recorded, all the compounds in all cells rapidly crossed the cell membrane (5 min) and induced a slight stain in the first minutes of incubation, depending on the type of cells. However, for incubation times longer than 30 min, it seems that this difference in the stained disappeared, thus appearing that the compounds were localized into an organelle of the cytoplasm.
Besides, the subcellular localization of the compounds has been confirmed by co-staining with MitoTracker™ (25 nM, 45 min of incubation) and ER-Tracker™ (100 nM, 30 min of incubation) probes in MCF-7, NHDF and P14 cells, with compound concentrations of 10 nM and 100 nM and for incubation times of 1 h.
After growth in the glass bottom culture dishes coated with collagen (1×10^4 cells/dish), the cells were incubated in the dark at 37°C with 10 nM of all the compounds and analyzed from 5 min to 48 h. […]

[4] = test system: human adult dermal skin fibroblasts (P14); assay: MTT cytotoxicity assay, P14; format: cell-based; conditions: P14 cells, 48 h; for IC50: Homo sapiens, Skin fibroblast; for reduction in cell viability (approximately 50%): 0.1 µM
Method: as §1, §2, §3

NHDF cells [5] = assay: Mitochondrial membrane potential by flow cytometry (CMXRos / MitoTracker Green), NHDF; format: cell-based, human; conditions: 10 µM, 48 h
From the text: (§4) In order to study the effects of the compounds in mitochondrial membrane potential (MMP) of MCF-7 and NHDF cells, flow cytometry assay was employed to monitor any fluorescence changes in MitoTracker Green™ and red fluorescence of chloromethyl-X-rosamine (CMXRos), treatment with the uncoupler 2,4-dinitrophenol (2,4-DNP) to collapse the MMP. While MitoTracker Green™ staining was relatively unaffected by changes in MMP, the CMXRos staining of mitochondria is sensitive to MMP [30]. Also, laser scanning confocal microscopy was employed to analyze changes in mitochondrial localization by treated cells with uncoupler 2,4-DNP and staining with MitoTracker Green™ and compounds.
(§5) The assessment of mitochondrial membrane potential was determined as described previously. Briefly, the cells were incubated with 200 nM of MitoTracker Green™ and 200 nM of Mitotracker Red (CMXRos) for 30 min prior to harvesting. The 2,4-dinitrophenol (DNP) was used as a mitochondrial uncoupler (300 µM, 2 h). The cells were treated with compounds concentration 10 µM for 48 h. The relative mitochondrial membrane potential was analyzed by flow cytometry by measuring the mean intensity of FL1 (green) and FL4 (red) channels. The FL4/FL1 ratio intensities of compounds treated and positive control (DNP) were compared and indicated if the compounds change the mitochondrial membrane potential of the cells.

MCF-7 cells = assay: Mitochondrial membrane potential by flow cytometry (CMXRos / MitoTracker Green), MCF-7; format: cell-based, human; conditions: 10 µM, 48 h
From the text: as §4, §5

NHDF cells [6] = assay: Annexin V-FITC / PI flow cytometry, NHDF; format: cell-based, human; conditions: 10 µM, 48 h
Method: For this purpose, the fluorescein isothiocyanate (FITC)-conjugated annexin V - PI (propidium iodide) flow cytometry assay is employed, allowing the identification of apoptosis and necrosis. Thus, MCF-7 and NHDF cells are treated with two concentrations (10 nM and 10 µM) of each compound for 48 h. These concentrations are […], except for [32]phen2N4 on MCF-7 cells.
To detect apoptosis, cells were stained with propidium iodide (PI) and fluorescein isothiocyanate (FITC)-conjugated annexin V using an Annexin V-FITC Apoptosis Detection Kit (BD PharmingenTM). Briefly, cells were seeded in […] flasks in the culture medium containing FBS and after reaching approximated 90% confluence they were treated with two concentrations (10 nM and 10 µM) of each compound for 48 h, with untreated cells serving as control. At the end of incubation, cells were harvested by trypsin-EDTA treatment, washed twice with cold PBS and resuspended with 1× binding buffer (1 mL). […] After the addition of […] of 1× binding buffer, stained cells were subjected to fluorescence-activated cell sorter (FACS) analysis using a FACSCalibur flow cytometer. The FITC fluorescence was measured between 515 and 545 nm and the PI fluorescence between 564 and 606 nm. […]

Structure (SMILES) | IC50 [1] | cytotoxicity ([1]; 10 nM to 10 µM) | IC50 [2] | signs of cytotoxicity in microscopy [3] | IC50 [4] | reduction in cell viability (approximately 50%) [4] | effect on mitochondrial membrane potential (FL4/FL1 ratio) versus positive control 2,4-DNP (NHDF cells [5]) | effect on mitochondrial membrane potential (red fluorescence, FL4/FL1) versus positive control 2,4-DNP (MCF-7 cells) | percentage of late apoptotic cells (NHDF cells [6])
c1cc2ccc3ccc4nc3c2nc1CNCCCCCCNCc1ccc2ccc3ccc(nc3c2n1)CNCCCCCCNC4 [[32]phen2N4] | < 0.01 µM | highly cytotoxic | 78.9 ± 2.82 µM | no relevant signs of cytotoxicity | 85.3 ± 1.79 µM |  |  |  | 
c1cc2ccc3ccc4nc3c2nc1CN1CCCCCCN(C4)Cc2ccc3ccc4ccc(nc4c3n2)CN2CCCCCCN(Cc3ccc4ccc5ccc(nc5c4n3)C2)Cc2ccc3ccc4ccc(nc4c3n2)C1 [cryptphen] | > 100 µM |  |  |  |  | not observed | modify the MMP |  | 
CN1CCCNCc2cccc(n2)CNCCCN(C)CCCNCc2cccc(n2)CNCCC1 [Me2[28]py2N6] | > 100 µM |  | 69.7 ± 3.02 µM |  | 36.8 ± 4.68 µM |  |  | decrease of red fluorescence | 
c1cc2ccc3ccc4nc3c2nc1CNCCNCCNCc1ccc2ccc3ccc(nc3c2n1)CNCCNCCNC4 [[30]phen2N6] | > 100 µM |  |  |  |  |  |  |  | 
O=Cc1ccc2ccc3ccc(C=O)nc3c2n1 [1,10-phen, 1,10-phenanthroline-2,9-dicarbaldehyde, reference compound] | > 100 µM |  |  |  |  |  |  |  | about 20%
c1cc2ccc3ccc4nc3c2nc1CNCCCCCCNC4 [[16]phenN2] | > 100 µM |  |  |  |  | not observed | modify the MMP | decrease of red fluorescence | about 20%

Source: paper PMC3221659, “Targeting of Mitochondria-Endoplasmic Reticulum by Fluorescent Macrocyclic Compounds” (PLoS ONE, 2011)
